EP0463592A1, “2,4- and 2,5-substituted pyridine-N-oxides, processes for their preparation and for their utilization” (HOECHST AKTIENGESELLSCHAFT, priority 1990, dated 1992)

Test system: durch CCl4 induzierte Leberfibrose in Ratten
Test: Effect of prolyl hydroxylase inhibitors on CCl4-induced liver fibrosis in rats: serum bilirubin, bile acids, gamma GT
Type: in vivo
Settings: rat serum, 20 mg/kg total daily oral dose; for Bile acids / Bilirubin / Gamma GT: CCl4 then compound, mean ± standard deviation; for Bile acids: prozentuale Verbesserung gegenüber einer ausschließlichen CCl4-Behandlung / Bilirubin: prozentuale Verbesserung gegenüber einer ausschließlichen CCl4-Behandlung / Gamma GT: prozentuale Verbesserung gegenüber einer ausschließlichen CCl4-Behandlung: value in brackets
Text: Um die effiziente Inhibitierung der Prolin-hydroxylase und der Lysin-hydroxylase durch die Verbindungen gemäß der Erfindung zu zeigen, werden die Konzentrationen von Bilirubin, Bile-Säuren und Gamma GT im Serum von • a) unbehandelten Ratten (Kontrolle), • b) mit CCl₄ behandelten Ratten, • c) Ratten, denen zuerst CCl₄ und anschließend eine Verbindung gemäß der Erfindung gegeben wurden, gemessen. (Die Methode ist beschrieben von Rouiller, C., Experimental toxic injury of the liver; in The Liver, C. Rouiller, Vol. 2, Seiten 335-476, New York, Academic Press 1964).
Die Ergebnisse sind in Tabelle 1 zusammengefaßt.

| SMILES | Bile acids | Bilirubin | Gamma GT | Bile acids: prozentuale Verbesserung gegenüber einer ausschließlichen CCl4-Behandlung | Bilirubin: prozentuale Verbesserung gegenüber einer ausschließlichen CCl4-Behandlung | Gamma GT: prozentuale Verbesserung gegenüber einer ausschließlichen CCl4-Behandlung |
| --- | --- | --- | --- | --- | --- | --- |
| COCCNC(=O)c1cc[n+]([O-])c(C(=O)NCCOC)c1 [Beispiel 1, Pyridin-2,4-dicarbonsäure-di-N,N'-(2-methoxyethyl)amid-N-oxid] | 97 ± 76 | 6,30 ± 5,4 µm | 4,3 ± 3,1 U/L | 0% | 0% | 27% |
| COCCCNC(=O)c1cc[n+]([O-])c(C(=O)NCCCOC)c1 [Beispiel 2, Pyridin-2,4-dicarbonsäure-di-N,N'-(3-methoxypropyl)amid-N-oxid] | 71 ± 42 | 2,90 ± 0,94 µm | 3,3 ± 2,2 U/L | 18% | 65% | 59% |
